{"source": "patent US10137181B2", "about": "“Isolated donor MHC-derived peptide and uses thereof” (INSERM (INSTITUT NATIONAL DE LA SANTÉ ET DE LA RECHERCHE …, priority 2014, dated 2018)", "key": {"CD8^+CD40Ig Tregs [1]": {"system": "CD8^+CD40Ig Tregs", "assay": "MLR coculture assay: CD8+CD40Ig Treg activation (CD25 expression) by donor MHC-derived peptides in the presence of syngeneic pDCs", "assay_type": "cell-based, rat", "conditions": "6 days culture, CpG-matured syngeneic pDCs; for activation of CD8+CD40Ig Tregs (CD25 upregulation), in words: individual peptide, derivatives compared with Bu31", "text": "FIG. 1: Analysis of CD8+CD45RClow Tregs activation in response to donor-derived peptide stimulation. (A) CD8+ Tregs were cocultured for 6 days with syngeneic CpG-matured pDCs in the presence of peptides. For each experiment, the percentage of CD25 positive Tregs after 6 days of coculture with pDCs only, was given the value 1. Mean value 1 is equal to 32.85±1.98%. Results are expressed as the ratio±SEM between the percentage of CD25 positive cells after peptide stimulation and percentage of CD25 positive cells in the control condition without peptide. *p<0.05, **p<0.01 and ***p<0.001 versus control condition (value 1.0). n=4 to 18 for each peptide. (B) Analysis of Treg activation in response to Bu31 shorter peptide derivatives. On the left, 15 Bu31-derivatives are detailed and classified by aa sequence length, from 9 aa to 15 aa. The box highlights mismatched aa between the donor and recipient. On the right, Treg activation in response to Bu31-derivatives was analyzed by CD25 expression. CD8+ Tregs were cocultured for 6 days with syngeneic CpG-matured pDCs in the presence of each peptide. Bars represent the ratio between the percentage of CD25 positive cells after peptide stimulation and percentage of CD25 positive cells in the control condition without peptide. *p<0.05, **p<0.01 versus Bu31 condition. n=3 to 14 for each peptide.\n(§1) Mixed lymphocyte reaction: For MLR coculture assays, pDCs from LEW.1A naive rats (1.25×10^4 cells), syngeneic CD8^+CD40Ig Tregs (5×10^4 cells) and 120 μg/ml of allogeneic peptides were plated in triplicate in 200 μl of complete RPMI-1640 medium in round-bottom 96 wells plates for 6 days at 37° C., 5% CO2. pDCs were matured with 0.5 μM of CpG ODN 1826.\n(§2) Proliferation of CFSE-labeled naive CD4^+CD25^− T cells and phenotype of CD8^+CD45RC^low Tregs were analyzed by flow cytometry on a FACSCanto II cytometer (BD Biosciences) after gating on TCR^+CD4^+ cells or TCR^+CD8^+ cells among live cells (DAPI negative).\n(§3) Extracellular and intracellular staining: For extracellular staining, cells were stained with the following mAbs: anti-TCRαβ (R73, Alexa Fluor 647-conjugated), anti-CD8α (OX8, PE-Cy7-conjugated, Ebiosciences), anti-CD4 (W3.25, PE-Cy7-conjugated), anti-CD45RC (OX22, FITC-conjugated), anti-CD28 (JJ319, biotin-labeled), anti-CD71 (OX26, biotin-labeled), anti-CD25 (OX39, biotin-labeled) and anti-MHC-II (OX6, biotin-labeled).\nIn the rat MHC-mismatched heart allograft model, donors (RT1^u) and recipients (RT1^a) are mismatched for all MHC molecules. We therefore aligned donor and recipient MHC I and II amino acids (aa) sequences and designed 82 overlapping 16-mer peptides matching the polymorphic domains of donor MHC I and II molecules (4-6). Peptides were first grouped into pools of 6 to 8 peptides (30 μg/ml of each peptide) and tested in an in vitro assay where immature or mature syngeneic recipient plasmacytoic dendritic cells (pDCs) and sorted-CD8^+CD40Ig Tregs from CD40Ig-treated long-term allograft bearing recipients were cocultured for 3 or 6 days. With immature pDCs, we observed no significant activation of CD8^+CD40Ig Tregs at day 3 or day 6 with any of the allogeneic pools of peptides. After stimulation with mature pDCs and pools of allogeneic peptides we observed at day 3 a slight upregulation of CD25 expression of a small population of CD8^+CD40Ig Tregs, and at day 6, a significant up-regulation of CD25 expression following allogeneic stimulation."}, "CD4^+CD25^− T cells [2]": {"system": "CD4^+CD25^− T cells", "assay": "In vitro suppressive potential of CD8+CD45RClow Tregs from peptide-treated recipients", "assay_type": "cell-based, rat", "conditions": "6 days culture, donor LEW.1W pDCs, different effector:suppressor ratios", "description": "FIG. 7. In vitro suppressive potential of CD8^+CD45RC^low Tregs from Bu31-treated recipients. The proliferation of naive CFSE-labeled LEW.1A CD4^+CD25^− T cells stimulated with donor LEW.1W pDCs was analyzed after 6 days of culture, in the presence of LEW.1A CD8^+CD45RC^low Tregs from naive or Bu31-treated recipients at different effector:suppressor ratio. The CD4^+CD25^− T cell proliferation alone was ˜80% and was given the value 100 in each experiment. Graphs represent the mean±SEM of relative CD4^+CD25^− T cell proliferation. *p<0.05.\nFor MLR suppressive assays, sorted CFSE-labeled CD4^+CD25^− T cells from LEW.1A origin (5×10^4 cells) and allogeneic pDCs isolated from donor LEW.1W animals (1.25×10^4 cells) were plated in triplicate for 6 days in a final volume of 200 μl of completed RPMI-1640 medium in round-bottom 96 wells plates with FACS-sorted freshly purified naive CD8^+CD45RC^low Treg cells or peptide-expanded CD8^+CD40Ig Treg cells (5×10^4 cells).\nas §2"}, "[3]": {"system": "heart allograft, LEW.1W donors into LEW.1A recipients", "assay": "Cardiac allograft survival after in vivo peptide infusion", "experimental": "Recipients were either untreated (n=9) or treated with continuous infusion of peptide by i.p mini osmotic pumps (ALZET), delivering from day-7 and for 28 days, either 20.83 μg/hour alone (Bu31 0.5 mg/day: n=6) or 40.66 μg/hour in the LEW.1W/LEW.1A (Du51 1 mg/day: n=5) or combined with a depleting anti-CD8 mAb (OX8) (n=2) or BN/LEW.1A (Du51 1 mg/day (BN/1A): n=4) strains combination.\nAnimals and cardiac transplantation models: Allotransplantations of heart were performed between whole MHC incompatible LEW.1W (RT1.A^u as donors) and LEW.1A (RT1.A^a as recipients) male rats as previously described (1).\nPeptides treatment in vivo: 16-mer peptides were dissolved in 0.4% DMSO/PBS before injection. […] In the second protocol, mini osmotic pumps (ALZET, Cupertino, Calif., USA) were implanted intraperitoneally (i.p) in recipients and delivered continuously either 20.83 or 41.66 μg/hour of 16-mer peptides for 14 days. A first pump was implanted on day −7 before transplantation and was replaced by a second one at day +7, allowing delivery of 14 or 28 mg of peptide per animal for 28 consecutive days. A depleting anti-CD8α mAb (OX8, IgG1, 3 mg/kg) was injected i.p. twice a week from day −7 until rejection. Allografts were monitored daily by palpation and allograft rejection was defined as complete cessation of palpable heart beat."}, "cardiac grafts": {"system": "cardiac grafts", "assay": "Morphometric analysis of cardiac grafts (chronic rejection)", "assay_type": "in vivo, rat", "conditions": "long-term surviving peptide-treated recipients", "description": "Morphometric analysis of cardiac grafts: The upper third of the graft was fixed in paraformaldehyde and embedded in paraffin. Five μm coronal sections were stained with hematoxylin-eosine-safron. Tissues were analyzed by a pathologist blinded to the groups and chronic rejection was evaluated as previously described (16)."}, "donor splenocytes": {"system": "donor splenocytes", "assay": "Donor specific alloantibody detection", "assay_type": "in vivo, rat", "conditions": "long-term surviving treated recipients vs untreated rats, sera >120 days after transplantation", "description": "FIG. 6: Anti-donor immune responses. Allo antibody production was evaluated in naive (n=3), grafted untreated (n=3) and long-term […] (n=4) animals. Sera were collected <30 days after rejection or >120 days after transplantation. Sera were incubated with donor splenocytes and analyzed by flow cytometry for IgG, IgG1 or IgG2b Abs production. Graph represents MFI±SEM.\nDonor specific alloantibody detection: Alloantibodies were analyzed by cytofluorimetry as described elsewhere (14). Briefly, after digestion by collagenase D and red blood cell lysis, allogeneic spleen cells were incubated with diluted (⅛) heat-inactivated serum, and then with FITC-conjugated goat anti-rat IgG antibodies (H+L chain specific) (Jackson Laboratories), a mouse anti-rat IgG1 MAb (MCA 194, Serotec) or IgG2b (MCA 195, Serotec). […] Cells were analyzed using a FACS Canto II cytofluorimeter (BD Biosciences, Mountain View, Calif.) and the results were expressed as mean channel fluorescence for each serum."}, "CD8^+CD40Ig Tregs [4]": {"system": "CD8^+CD40Ig Tregs", "assay": "Cytokine ELISA in Treg/pDC coculture supernatants after peptide stimulation", "assay_type": "cell-based, rat", "conditions": "6 days peptide stimulation with pDCs", "description": "(§4) FIG. 2: CD8+ Tregs phenotype following ex vivo allopeptide stimulation. (A) Tregs and syngeneic CpG-matured pDCs were cultured for 6 days, alone, with a control peptide or with peptide Bu31. Expression of indicated markers was analyzed on CD8+ Tregs in the culture supernatant by ELISA (A) or by flow cytometry (B) after in vitro stimulation. Graphs represent the mean±SEM. *p<0.05, **p<0.01, n=4 to 7.\nas §1\nCytokine assays: IFNγ, IL-10 were measured in coculture supernatants using ELISA from BD Biosciences OptEIA, IL-12 and TGFβ using ELISA from Invitrogen and R&D System respectively."}, "CD4^+CD25^− T cells [5]": {"system": "CD4^+CD25^− T cells", "assay": "MLR suppressive assay with peptide-stimulated CD8+CD40Ig Tregs", "assay_type": "cell-based, rat", "conditions": "day 6, donor LEW.1W pDCs, 1:1 effector:suppressor, vs Tregs stimulated by a non-activating peptide", "description": "FIG. 3: Bu31-activated Tregs maintained efficient suppressive activity. Fresh CD8+CD40Ig Tregs and syngeneic CpG-matured pDCs were cocultured for 6 days with either Bu31 or a control peptide. At day 6, Tregs were isolated by cell sorting (TCR+) and their regulatory function was analyzed by measuring their capacity to suppress MLR assay. The relative proportion of naive CFSE-labeled dividing LEW.1A CD4+CD25− T cells after stimulation with donor LEW.1W pDCs was analyzed at day 6 of culture, in the absence or presence of 6 days peptide-stimulated CD8+ Tregs at a 1:1 ratio effector:suppressor. Graphs represent the mean±SEM. *p<0.05 (left). Plots are representative of four independent experiments (right). […]\nas §2\nHere, we investigated whether Bu31-stimulated CD8^+CD40Ig Tregs could efficiently suppress effector T cell proliferation after 6 days coculture and thus maintained their suppressor activity, compared to CD8^+CD40Ig Tregs stimulated with a non-activating control peptide. […] To evaluate this, we measured the relative proportion of dividing CD4^+CD25^− T cells at day 6 of coculture (FIG. 3)."}, "CD8^+CD40Ig Tregs [6]": {"system": "CD8^+CD40Ig Tregs", "assay": "Flow cytometry phenotype of CD8+ Tregs after ex vivo peptide stimulation", "assay_type": "cell-based, rat", "conditions": "6 days of peptide stimulation", "description": "as §4, §1, §3\nFor intracellular staining, cells were then stained for Foxp3 (biotin-labeled, Ebiosciences) using BD cytofix/cytoperm kit (BD Biosciences) according to the manufacturer's instructions.\nAll biotinylated mAbs were visualized using Streptavidin-PerCP.Cy5.5 (BD Biosciences). A FACSCanto II cytofluorimeter (BD Biosciences) was used to measure fluorescence, and data were analyzed using FlowJo software (Tree Star, Inc. USA, version 7.6.5). Cells were first gated by their morphology and dead cells excluded by selecting DAPI negative viable cells."}}, "data": [{"sequence": "LRYDSDVGEYRAVTE (Synthetic 15-mer peptide 31-15)", "values": [{"measurement": "activation of CD8+CD40Ig Tregs (CD25 upregulation), in words", "setting": "CD8^+CD40Ig Tregs [1]", "result": "much stronger and significant CD25 upregulation"}]}, {"sequence": "SDVGEYRAVTELGR (Synthetic 14-mer peptide 31-14)", "values": [{"measurement": "activation of CD8+CD40Ig Tregs (CD25 upregulation), in words", "setting": "CD8^+CD40Ig Tregs [1]", "result": "much stronger and significant CD25 upregulation"}]}, {"sequence": "YLRYDSDVGEYR (Synthetic 12-mer peptide 31-10)", "values": [{"measurement": "activation of CD8+CD40Ig Tregs (CD25 upregulation), in words", "setting": "CD8^+CD40Ig Tregs [1]", "result": "much stronger and significant CD25 upregulation"}]}, {"sequence": "YLRYDSDVGEYRAV (Synthetic 14-mer peptide 31-13)", "values": [{"measurement": "activation of CD8+CD40Ig Tregs (CD25 upregulation), in words", "setting": "CD8^+CD40Ig Tregs [1]", "result": "much stronger and significant CD25 upregulation"}]}, {"sequence": "YLRYDSDVGEYRAVTE (Synthetic Subdominant peptide Bu31) [16-mer from the β1 chain of donor MHC class II RT1.B^u]", "values": [{"measurement": "ex vivo suppressive activity of CD8+CD45RClow Tregs from treated recipients on effector CD4+ T cell proliferation", "setting": "CD4^+CD25^− T cells [2]", "result": "superior suppressive activity"}, {"measurement": "prolongation of allograft survival", "setting": "[3]; 0.5 mg/day i.p. mini-osmotic pumps for 28 days from day -7, monotherapy", "result": "not sufficient to induce prolongation of allograft survival"}, {"measurement": "indefinite allograft survival, share of recipients", "setting": "[3]; 1 mg/day i.p. mini-osmotic pumps for 28 days from day -7, LEW.1W/LEW.1A", "result": 80, "unit": "%"}, {"measurement": "rejection of Brown Norway (BN) third party grafts, time after transplantation", "setting": "[3]; peptide infusion 1 mg/day, BN/LEW.1A combination", "result": 7, "unit": "days"}, {"measurement": "signs of chronic rejection, anatomopathologic analysis of the graft", "setting": "cardiac grafts", "result": "no signs of chronic rejection"}, {"measurement": "IgG1 alloantibodies production", "setting": "donor splenocytes", "result": "total inhibition"}, {"measurement": "IgG2b alloantibodies production", "setting": "donor splenocytes", "result": "total inhibition"}, {"measurement": "total IgG alloantibodies production", "setting": "donor splenocytes", "result": "total inhibition"}, {"measurement": "IFNγ expression in culture supernatant", "setting": "CD8^+CD40Ig Tregs [4]", "result": "significant increased expression"}, {"measurement": "IL-10 expression in culture supernatant", "setting": "CD8^+CD40Ig Tregs [4]", "result": "no modification"}, {"measurement": "IL-12 expression in culture supernatant", "setting": "CD8^+CD40Ig Tregs [4]", "result": "no modification"}, {"measurement": "TGFβ expression in culture supernatant", "setting": "CD8^+CD40Ig Tregs [4]", "result": "no modification"}, {"measurement": "suppressive activity of peptide-stimulated Tregs: relative proportion of dividing CD4+CD25− effector T cells", "setting": "CD4^+CD25^− T cells [5]", "result": "maintained an efficient suppressive activity"}, {"measurement": "upregulation of CD25 expression at the cell surface of CD8+CD40Ig Tregs, ratio of % CD25 positive cells vs. no peptide", "setting": "CD8^+CD40Ig Tregs [1]; individual 16-mer peptide, mean±SEM", "result": "1.67±0.09", "unit": "fold"}, {"measurement": "CD28 expression on CD8+ Tregs", "setting": "CD8^+CD40Ig Tregs [6]", "result": "upregulation"}, {"measurement": "CD71 expression on CD8+ Tregs", "setting": "CD8^+CD40Ig Tregs [6]", "result": "upregulation"}, {"measurement": "Foxp3 expression in CD8+ Tregs", "setting": "CD8^+CD40Ig Tregs [6]", "result": "no modification"}, {"measurement": "MHC class II expression on CD8+ Tregs", "setting": "CD8^+CD40Ig Tregs [6]", "result": "upregulation"}]}]}
